In test [1] the target is T1, Replicative DNA helicase DnaB (Mycobacterium tuberculosis, UniProt P9WMR3).
T1 sequence (P9WMR3 whole entry): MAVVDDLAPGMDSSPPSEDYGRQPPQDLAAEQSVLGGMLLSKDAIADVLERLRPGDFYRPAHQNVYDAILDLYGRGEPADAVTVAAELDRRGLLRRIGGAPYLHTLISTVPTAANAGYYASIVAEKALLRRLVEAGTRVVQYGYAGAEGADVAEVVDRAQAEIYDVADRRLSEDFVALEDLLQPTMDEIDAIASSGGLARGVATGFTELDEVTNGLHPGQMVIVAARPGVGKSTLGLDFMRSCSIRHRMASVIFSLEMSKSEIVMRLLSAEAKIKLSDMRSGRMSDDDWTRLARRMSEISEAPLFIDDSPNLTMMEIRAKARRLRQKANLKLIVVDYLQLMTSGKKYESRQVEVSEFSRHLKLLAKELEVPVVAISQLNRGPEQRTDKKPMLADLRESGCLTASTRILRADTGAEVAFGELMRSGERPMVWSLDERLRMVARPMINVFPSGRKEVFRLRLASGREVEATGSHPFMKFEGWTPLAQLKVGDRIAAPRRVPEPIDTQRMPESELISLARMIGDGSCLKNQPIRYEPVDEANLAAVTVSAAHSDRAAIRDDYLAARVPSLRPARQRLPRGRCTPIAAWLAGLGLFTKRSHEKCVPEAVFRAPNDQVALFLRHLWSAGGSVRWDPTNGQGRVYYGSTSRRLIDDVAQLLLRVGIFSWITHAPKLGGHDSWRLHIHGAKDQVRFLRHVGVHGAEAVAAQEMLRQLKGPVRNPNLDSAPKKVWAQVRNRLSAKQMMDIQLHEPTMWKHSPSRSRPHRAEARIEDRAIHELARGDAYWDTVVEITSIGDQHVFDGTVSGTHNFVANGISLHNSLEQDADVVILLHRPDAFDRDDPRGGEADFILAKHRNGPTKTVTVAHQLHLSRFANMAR
The experiment in a line: DnaB intein splicing inhibitors, dose response, biochemical, cell-free fluorescence (AID 449749). The format is functional.

Test [2] has as its target Serine/threonine-protein kinase 17A (Homo sapiens, UniProt Q9UEE5). The format is functional.
Test [3] addresses Mitogen-activated protein kinase 8 (Homo sapiens, UniProt P45983). The class given is functional.
Test [4] addresses Mitogen-activated protein kinase kinase kinase kinase 2 (Homo sapiens, UniProt Q12851). The class given is functional.
Test [5] addresses Mitogen-activated protein kinase 1 (Homo sapiens, UniProt P28482). The class given is functional.
Test [6] deals with cAMP-dependent protein kinase catalytic subunit PRKX (Homo sapiens, UniProt P51817). The format is functional.
Chain of cAMP-dependent protein kinase catalytic subunit PRKX (P51817 whole entry): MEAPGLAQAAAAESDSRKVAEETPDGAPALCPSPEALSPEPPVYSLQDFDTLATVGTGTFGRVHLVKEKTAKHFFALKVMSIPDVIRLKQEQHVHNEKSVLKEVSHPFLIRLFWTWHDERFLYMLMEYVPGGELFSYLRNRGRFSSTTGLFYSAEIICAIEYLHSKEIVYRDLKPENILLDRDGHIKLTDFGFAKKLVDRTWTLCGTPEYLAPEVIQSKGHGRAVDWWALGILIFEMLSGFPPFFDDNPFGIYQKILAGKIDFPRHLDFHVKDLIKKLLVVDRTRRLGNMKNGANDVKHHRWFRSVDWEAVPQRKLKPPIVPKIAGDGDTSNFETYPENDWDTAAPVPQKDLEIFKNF
The target in test [7] is Dual specificity mitogen-activated protein kinase kinase 2 (Homo sapiens, UniProt P36507). The experiment in a line: Navigating the Kinome. Panel member name: MAP2K2. The class given is functional.
Chain of Dual specificity mitogen-activated protein kinase kinase 2 (P36507 whole entry): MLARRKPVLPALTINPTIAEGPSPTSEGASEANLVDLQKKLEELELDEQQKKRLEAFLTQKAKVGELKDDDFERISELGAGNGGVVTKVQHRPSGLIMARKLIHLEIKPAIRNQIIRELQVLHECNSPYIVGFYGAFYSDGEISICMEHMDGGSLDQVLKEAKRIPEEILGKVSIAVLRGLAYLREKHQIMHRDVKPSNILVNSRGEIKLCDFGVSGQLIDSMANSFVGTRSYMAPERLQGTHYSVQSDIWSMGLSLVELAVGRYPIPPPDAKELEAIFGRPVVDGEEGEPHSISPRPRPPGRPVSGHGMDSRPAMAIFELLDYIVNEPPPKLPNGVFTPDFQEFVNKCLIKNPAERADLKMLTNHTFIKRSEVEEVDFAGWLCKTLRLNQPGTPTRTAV
Test [8] deals with Bifunctional protein GlmU (Mycobacterium tuberculosis, UniProt P9WMN3). The experiment in a line: Inhibitors of Mycobacterial Glucosamine-1-phosphate acetyl transferase (GlmU). Secondary screen. Further details: species or system Mycobacterium tuberculosis H37Rv.
Chain of Bifunctional protein GlmU (P9WMN3 whole entry): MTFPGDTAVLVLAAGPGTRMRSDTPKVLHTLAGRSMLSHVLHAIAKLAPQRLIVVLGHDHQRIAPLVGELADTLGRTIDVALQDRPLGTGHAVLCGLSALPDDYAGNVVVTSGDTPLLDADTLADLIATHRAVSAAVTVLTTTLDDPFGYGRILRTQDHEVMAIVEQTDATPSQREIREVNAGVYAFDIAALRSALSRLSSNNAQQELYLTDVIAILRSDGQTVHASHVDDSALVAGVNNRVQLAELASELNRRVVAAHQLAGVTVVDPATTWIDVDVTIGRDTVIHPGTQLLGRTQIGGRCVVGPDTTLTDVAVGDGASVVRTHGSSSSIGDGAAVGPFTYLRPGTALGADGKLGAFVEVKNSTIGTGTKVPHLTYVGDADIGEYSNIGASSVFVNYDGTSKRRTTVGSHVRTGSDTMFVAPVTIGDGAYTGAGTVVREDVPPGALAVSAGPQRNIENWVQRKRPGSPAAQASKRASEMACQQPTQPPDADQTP
The target in another test is T2, Leucine aminopeptidase (Plasmodium falciparum 3D7, UniProt Q8IL11).
T2 sequence (Q8IL11 whole entry): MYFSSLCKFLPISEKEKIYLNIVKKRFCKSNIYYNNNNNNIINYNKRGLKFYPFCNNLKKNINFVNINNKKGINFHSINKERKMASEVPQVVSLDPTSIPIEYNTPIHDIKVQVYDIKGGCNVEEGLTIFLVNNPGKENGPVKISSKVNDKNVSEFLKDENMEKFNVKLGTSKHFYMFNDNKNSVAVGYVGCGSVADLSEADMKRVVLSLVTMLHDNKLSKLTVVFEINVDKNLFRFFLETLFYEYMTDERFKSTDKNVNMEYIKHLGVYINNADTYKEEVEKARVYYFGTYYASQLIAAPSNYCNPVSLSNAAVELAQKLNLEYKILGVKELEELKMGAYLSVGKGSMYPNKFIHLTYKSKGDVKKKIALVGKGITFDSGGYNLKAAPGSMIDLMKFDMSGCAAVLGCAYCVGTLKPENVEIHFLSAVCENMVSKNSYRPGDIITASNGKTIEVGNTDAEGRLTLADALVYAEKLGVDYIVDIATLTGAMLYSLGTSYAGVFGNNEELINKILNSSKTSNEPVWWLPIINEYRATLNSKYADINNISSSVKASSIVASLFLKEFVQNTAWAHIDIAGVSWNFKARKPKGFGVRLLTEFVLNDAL
The experiment in a line: P. falciparum M17LAP inhibitors, primary screen, biochemical, fluorogenic H-Leu-NHMec substrate, 1536-well (AID 1619). The class given is functional.

The target of test [9] is T3, Alkaline phosphatase, tissue-nonspecific isozyme (Homo sapiens, UniProt P05186).
T3 sequence (P05186 whole entry): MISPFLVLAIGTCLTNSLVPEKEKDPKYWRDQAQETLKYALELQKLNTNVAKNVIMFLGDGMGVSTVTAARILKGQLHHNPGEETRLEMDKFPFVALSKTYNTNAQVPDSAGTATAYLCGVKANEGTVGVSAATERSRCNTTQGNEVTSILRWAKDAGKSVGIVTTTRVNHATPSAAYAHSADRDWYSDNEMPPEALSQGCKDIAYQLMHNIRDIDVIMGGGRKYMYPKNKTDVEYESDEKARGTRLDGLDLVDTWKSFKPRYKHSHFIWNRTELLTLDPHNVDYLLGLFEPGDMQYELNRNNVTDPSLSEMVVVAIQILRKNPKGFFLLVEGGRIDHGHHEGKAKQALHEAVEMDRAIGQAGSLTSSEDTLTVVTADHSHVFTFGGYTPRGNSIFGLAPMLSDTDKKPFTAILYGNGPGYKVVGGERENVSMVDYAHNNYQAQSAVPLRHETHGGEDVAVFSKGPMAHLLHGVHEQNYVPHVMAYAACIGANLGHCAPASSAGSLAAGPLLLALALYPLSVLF
Briefly: inhibition of tissue-nonspecific alkaline phosphatase – biochemical, dose response (AID 488882). The class given is functional.

The source of these data is ChEMBL document CHEMBL1201862, “PubChem BioAssay data set” (2004).

Activity calls are given as the source filed them.

Usually AC50 stands for the midpoint of the concentration-response curve, whichever way the signal moves. Usually Ki stands for a dissociation constant, usually derived from enzyme kinetics or from competition with a known ligand. Broadly, the IC50 is the concentration needed to halve the response being measured.

Chain of Serine/threonine-protein kinase 17A (Q9UEE5 whole entry): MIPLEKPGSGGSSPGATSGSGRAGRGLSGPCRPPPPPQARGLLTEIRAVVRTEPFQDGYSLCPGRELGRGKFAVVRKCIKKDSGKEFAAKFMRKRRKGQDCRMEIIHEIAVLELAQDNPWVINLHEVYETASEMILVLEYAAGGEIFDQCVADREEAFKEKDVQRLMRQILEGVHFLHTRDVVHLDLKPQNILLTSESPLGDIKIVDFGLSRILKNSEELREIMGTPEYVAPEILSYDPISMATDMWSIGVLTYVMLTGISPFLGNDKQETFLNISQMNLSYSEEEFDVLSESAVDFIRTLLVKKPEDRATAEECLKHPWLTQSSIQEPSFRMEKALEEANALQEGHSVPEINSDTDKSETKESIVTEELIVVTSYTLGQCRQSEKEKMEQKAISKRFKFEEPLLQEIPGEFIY
Chain of Mitogen-activated protein kinase 1 (P28482 whole entry): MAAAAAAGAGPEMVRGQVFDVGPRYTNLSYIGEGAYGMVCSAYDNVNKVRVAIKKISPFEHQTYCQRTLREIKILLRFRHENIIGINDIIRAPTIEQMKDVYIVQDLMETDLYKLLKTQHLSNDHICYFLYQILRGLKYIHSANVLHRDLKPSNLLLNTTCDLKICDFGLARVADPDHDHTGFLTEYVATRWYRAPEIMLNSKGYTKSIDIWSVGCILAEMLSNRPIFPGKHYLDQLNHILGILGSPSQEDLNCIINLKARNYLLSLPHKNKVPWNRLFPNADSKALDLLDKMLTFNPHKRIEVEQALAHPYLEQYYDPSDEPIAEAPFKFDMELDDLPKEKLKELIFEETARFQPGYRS
Chain of Mitogen-activated protein kinase 8 (P45983 whole entry): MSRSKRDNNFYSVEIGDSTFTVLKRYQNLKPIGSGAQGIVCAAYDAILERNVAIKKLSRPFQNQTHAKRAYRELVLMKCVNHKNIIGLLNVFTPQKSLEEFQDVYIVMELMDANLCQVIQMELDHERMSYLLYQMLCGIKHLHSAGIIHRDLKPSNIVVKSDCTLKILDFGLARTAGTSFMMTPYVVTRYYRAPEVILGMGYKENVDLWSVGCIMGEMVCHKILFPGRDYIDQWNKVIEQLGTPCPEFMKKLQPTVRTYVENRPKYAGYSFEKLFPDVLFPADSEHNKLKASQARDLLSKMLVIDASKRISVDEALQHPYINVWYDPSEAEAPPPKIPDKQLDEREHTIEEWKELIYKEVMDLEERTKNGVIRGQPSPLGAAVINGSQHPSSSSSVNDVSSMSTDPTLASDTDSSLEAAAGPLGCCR
Chain of Mitogen-activated protein kinase kinase kinase kinase 2 (Q12851 whole entry): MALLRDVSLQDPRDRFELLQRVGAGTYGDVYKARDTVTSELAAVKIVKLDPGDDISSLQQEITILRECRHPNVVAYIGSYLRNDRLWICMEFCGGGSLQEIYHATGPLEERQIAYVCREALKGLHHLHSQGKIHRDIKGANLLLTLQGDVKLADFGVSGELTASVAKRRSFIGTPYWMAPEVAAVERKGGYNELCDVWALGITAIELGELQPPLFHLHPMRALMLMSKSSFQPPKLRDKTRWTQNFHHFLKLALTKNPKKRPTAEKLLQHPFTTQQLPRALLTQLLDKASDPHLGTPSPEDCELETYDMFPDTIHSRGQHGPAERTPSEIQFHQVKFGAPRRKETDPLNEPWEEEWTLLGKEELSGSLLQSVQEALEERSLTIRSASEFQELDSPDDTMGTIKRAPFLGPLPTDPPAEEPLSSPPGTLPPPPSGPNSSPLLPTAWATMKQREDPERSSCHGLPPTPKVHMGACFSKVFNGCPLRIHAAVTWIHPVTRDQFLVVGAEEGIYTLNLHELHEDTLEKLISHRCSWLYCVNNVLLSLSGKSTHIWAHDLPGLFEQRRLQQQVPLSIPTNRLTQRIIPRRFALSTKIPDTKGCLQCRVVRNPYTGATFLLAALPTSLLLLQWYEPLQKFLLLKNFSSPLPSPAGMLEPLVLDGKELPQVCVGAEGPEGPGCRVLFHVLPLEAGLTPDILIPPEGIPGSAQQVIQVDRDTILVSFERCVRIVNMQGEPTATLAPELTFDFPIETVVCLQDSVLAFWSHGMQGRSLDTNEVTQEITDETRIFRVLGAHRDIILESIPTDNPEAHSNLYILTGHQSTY

In the case of `COC(=O)C1CN(C#N)N(c2ccc(Cl)cc2)C12c1ccccc1-c1ccccc12` (stereo not given), in test [1], the AC50 was 3.16 µM (active).

For the molecule `Nc1noc2cccc(-c3cccc(O)c3)c12`, the Ki in [2] was > 3.98 µM (inactive); in [3], > 25.1 µM (inactive); in test [4], 15.8 µM (active); in test [5] it was > 7.94 µM (inactive); in test [6], 5.01 µM (active); in test [7], 7.94 µM (active).

In the case of `O=C1NC(=S)S/C1=C\C=C\c1ccc([N+](=O)[O-])o1`, the IC50 in [8] was 19.1 µM (active).

For the molecule `O=C(NN1C(=O)CSC1=S)C(=O)NN1C(=O)CSC1=S`, the IC50 at Leucine aminopeptidase is 20.5 µM (active); in test [9], 12.8 µM (active).
